According to patent US20160287589A1, “SUBSTITUTED-IMIDAZOPYRIDAZINES” (BAYER PHARMA AKTIENGESELLSCHAFT, priority 2013, published 2016):

Legend:
MKNK1 [1] = target: T1, MKNK1 (Homo sapiens, UniProt Q9BUB5, T385D); assay: MKNK1 kinase high ATP assay (TR-FRET-based); format: biochemical; conditions: Table 2c; 2 mM ATP, 15 min preincubation
T1 construct: GST (N); purchased Carna Biosciences 02-145; host or cells: insect cells (baculovirus expression system)
Summary of the method: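 GST-tagged full-length human MKNK1 (aa 1-424, T344D) from insect cells, preincubated with compound 15 min at 22 °C. Reaction 30 min at 22 °C with 2 mM ATP and 0.06 μM biotinylated peptide in HEPES pH 7.5, Mg2+, DTT. Phosphopeptide detected by TR-FRET (665/622 ratio) with anti-pS6 (pSer236) antibody; normalised to no-inhibitor and no-enzyme controls.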

MKNK1 [2] = target: T1, MKNK1; assay: MKNK1 kinase assay (MKNK1 TR-FRET assay); format: biochemical; conditions: Table 1c; 10 μM ATP, 15 min preincubation

T1 sequence (Q9BUB5 1-424 isoform Q9BUB5-2 T344D): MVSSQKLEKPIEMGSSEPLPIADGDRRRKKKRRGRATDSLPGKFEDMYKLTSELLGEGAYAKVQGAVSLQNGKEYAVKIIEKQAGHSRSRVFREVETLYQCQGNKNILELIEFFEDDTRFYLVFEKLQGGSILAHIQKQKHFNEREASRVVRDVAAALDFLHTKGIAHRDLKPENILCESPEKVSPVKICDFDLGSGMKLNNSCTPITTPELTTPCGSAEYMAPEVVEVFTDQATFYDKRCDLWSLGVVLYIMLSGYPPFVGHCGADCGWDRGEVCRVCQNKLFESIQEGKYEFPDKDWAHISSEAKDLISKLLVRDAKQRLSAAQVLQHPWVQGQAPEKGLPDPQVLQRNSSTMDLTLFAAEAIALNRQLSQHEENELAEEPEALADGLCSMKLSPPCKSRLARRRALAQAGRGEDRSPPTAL

IC50 (MKNK1 [1]) [nM]	IC50 (MKNK1 [2]) [nM]	Structure (SMILES)
1.2	1	CN1CCN(c2nccc3oc(-c4cnc5ccc(OC[C@H]6CCC(=O)N6)nn45)cc23)CC1 [III-61, (5R)-5-[({3-[4-(4-Methylpiperazin-1-yl)furo[3,2-c]pyridin-2-yl]imidazo[1,2-b]pyridazin-6-yl}oxy)methyl]pyrrolidin-2-one]
1	2.4	O=C1CC[C@H](COc2ccc3ncc(-c4cc5c(N6CCCCC6)nccc5o4)n3n2)N1 [III-62, (5R)-5-[({3-[4-(Piperidin-1-yl)furo[3,2-c]pyridin-2-yl]imidazo[1,2-b]pyridazin-6-yl}oxy)methyl]pyrrolidin-2-one]
12.6	4.3	CC(C)(C)N1CCN(c2nccc3oc(-c4cnc5ccc(OC[C@H]6CCC(=O)N6)nn45)cc23)CC1 [III-63, (5R)-5-[({3-[4-(4-tert-Butylpiperazin-1-yl)furo[3,2-c]pyridin-2-yl]imidazo-[1,2-b]pyridazin-6-yl}oxy)methyl]pyrrolidin-2-one]
0.1	0.4	CN(C)[C@@H]1CCN(c2nccc3oc(-c4cnc5ccc(OC[C@H]6CCC(=O)N6)nn45)cc23)C1 [III-64, (5R)-5-{[(3-{4-[(3R)-3-(Dimethylamino)pyrrolidin-1-yl]furo[3,2-c]pyridin-2-yl}imidazo[1,2-b]pyridazin-6-yl)oxy]methyl}pyrrolidin-2-one]
11	10.7	O=C1CC[C@H](COc2ccc3ncc(-c4cc5c(N6CCC[C@@H]6CO)nccc5o4)n3n2)N1 [III-67, (5R)-5-{[(3-{4-[(2R)-2-(Hydroxymethyl)pyrrolidin-1-yl]furo[3,2-c]pyridin-2-yl}imidazo[1,2-b]pyridazin-6-yl)oxy]methyl}pyrrolidin-2-one]
0.7	0.5	O=C1CC[C@H](COc2ccc3ncc(-c4cc5c(N6CCOCC6)nccc5o4)n3n2)N1 [III-68, (5R)-5-[({3-[4-(Morpholin-4-yl)furo[3,2-c]pyridin-2-yl]imidazo[1,2-b]pyridazin-6-yl}oxy)methyl]pyrrolidin-2-one]
13.5	4.8	CC(C)(C)OC(=O)N1CCN(c2nccc3oc(-c4cnc5ccc(OC[C@H]6CCC(=O)N6)nn45)cc23)CC1 [III-70, tert-Butyl 4-[2-(6-{[(2R)-5-oxopyrrolidin-2-yl]methoxy}imidazo[1,2-b]pyridazin-3-yl)furo[3,2-c]pyridin-4-yl]piperazine-1-carboxylate]
1.4	2	O=C1CC[C@H](COc2ccc3ncc(-c4cc5c(N6CCNCC6)nccc5o4)n3n2)N1 [III-71, (5R)-5-[({3-[4-(Piperazin-1-yl)furo[3,2-c]pyridin-2-yl]imidazo[1,2-b]pyridazin-6-yl}oxy)methyl]pyrrolidin-2-one]
2	1	C[C@@H]1CN(c2nccc3oc(-c4cnc5ccc(OC[C@H]6CCC(=O)N6)nn45)cc23)C[C@H](C)O1 [III-72, (5R)-5-{[(3-{4-[(2R,6S)-2,6-Dimethylmorpholin-4-yl]furo[3,2-c]pyridin-2-yl}imidazo[1,2-b]pyridazin-6-yl)oxy]methyl}pyrrolidin-2-one]
0.8	0.6	CN(CCCO)c1nccc2oc(-c3cnc4ccc(OC[C@H]5CCC(=O)N5)nn34)cc12 [III-73, (5R)-5-{[(3-{4-[(3-Hydroxypropyl)(methyl)amino]furo[3,2-c]pyridin-2-yl}imidazo[1,2-b]pyridazin-6-yl)oxy]methyl}pyrrolidin-2-one]
1.5	1	CN(C)C1CCN(c2nccc3oc(-c4cnc5ccc(OC[C@H]6CCC(=O)N6)nn45)cc23)CC1 [III-74, (5R)-5-{[(3-{4-[4-(Dimethylamino)piperidin-1-yl]furo[3,2-c]pyridin-2-yl}imidazo[1,2-b]pyridazin-6-yl)oxy]methyl}pyrrolidin-2-one]
1.7	0.8	CN(C)[C@H]1CCN(c2nccc3oc(-c4cnc5ccc(OC[C@H]6CCC(=O)N6)nn45)cc23)C1 [III-75, (5R)-5-{[(3-{4-[(3S)-3-(Dimethylamino)pyrrolidin-1-yl]furo[3,2-c]pyridin-2-yl}imidazo[1,2-b]pyridazin-6-yl)oxy]methyl}pyrrolidin-2-one]
6	3.5	O=C1CC[C@H](COc2ccc3ncc(-c4cc5c(N6CCN(c7ccccc7)CC6)nccc5o4)n3n2)N1 [III-76, (5R)-5-[({3-[4-(4-Phenylpiperazin-1-yl)furo[3,2-c]pyridin-2-yl]imidazo[1,2-b]pyridazin-6-yl}oxy)methyl]pyrrolidin-2-one]
1.1	0.7	O=C1CC[C@H](COc2ccc3ncc(-c4cc5c(N6CCC(CO)CC6)nccc5o4)n3n2)N1 [III-77, (5R)-5-{[(3-{4-[4-(Hydroxymethyl)piperidin-1-yl]furo[3,2-c]pyridin-2-yl}imidazo[1,2-b]pyridazin-6-yl)oxy]methyl}pyrrolidin-2-one]
1.2	0.2	COC[C@H]1CCCN1c1nccc2oc(-c3cnc4ccc(OC[C@H]5CCC(=O)N5)nn34)cc12 [III-78, (5R)-5-{[(3-{4-[(2R)-2-(Methoxymethyl)pyrrolidin-1-yl]furo[3,2-c]pyridin-2-yl}imidazo[1,2-b]pyridazin-6-yl)oxy]methyl}pyrrolidin-2-one]

Further lines, the molecule ahead of its results:

Structure (SMILES)	IC50 (MKNK1 [1]) [nM]	IC50 (MKNK1 [2]) [nM]
CCN(CCOC)c1nccc2oc(-c3cnc4ccc(OCCCS(C)(=O)=O)nn34)cc12 [III-50, N-Ethyl-N-(2-methoxyethyl)-2-{6-[3-(methylsulfonyl)propoxy]imidazo[1,2-b]pyridazin-3-yl}furo[3,2-c]pyridin-4-amine]	0.5	1.4
CC(=O)N1CCN(c2nccc3oc(-c4cnc5ccc(OCCCS(C)(=O)=O)nn45)cc23)CC1 [III-51, 1-[4-(2-{6-[3-(Methylsulfonyl)propoxy]imidazo[1,2-b]pyridazin-3-yl}furo[3,2-c]pyridin-4-yl)piperazin-1-yl]ethanone]	14.2	7.3
COCCN(C)c1nccc2oc(-c3cnc4ccc(OCCCS(C)(=O)=O)nn34)cc12 [III-52, N-(2-Methoxyethyl)-N-methyl-2-{6-[3-(methylsulfonyl)propoxy]imidazo[1,2-b]pyridazin-3-yl}furo[3,2-c]pyridin-4-amine]	3.7	1.8
C[C@@H]1CN(c2nccc3oc(-c4cnc5ccc(OCCCS(C)(=O)=O)nn45)cc23)C[C@H](C)O1 [III-53, 3-{4-[(2R,6S)-2,6-Dimethylmorpholin-4-yl]furo[3,2-c]pyridin-2-yl}-6-[3-(methyl-sulfonyl)propoxy]imidazo[1,2-b]pyridazine]	26.7	8.7
CN(CCCO)c1nccc2oc(-c3cnc4ccc(OCCCS(C)(=O)=O)nn34)cc12 [III-54, 3-[Methyl(2-{6-[3-(methylsulfonyl)propoxy]imidazo[1,2-b]pyridazin-3-yl}furo[3,2-c]pyridin-4-yl)amino]propan-1-ol]	6.2	2.8
CN(C)C1CCN(c2nccc3oc(-c4cnc5ccc(OCCCS(C)(=O)=O)nn45)cc23)CC1 [III-55, N,N-Dimethyl-1-(2-{6-[3-(methylsulfonyl)propoxy]imidazo[1,2-b]pyridazin-3-yl}furo[3,2-c]pyridin-4-yl)piperidin-4-amine]	7.8	3.7
CS(=O)(=O)CCCOc1ccc2ncc(-c3cc4c(N5CCN(c6ccccc6)CC5)nccc4o3)n2n1 [III-56, 6-[3-(Methylsulfonyl)propoxy]-3-[4-(4-phenylpiperazin-1-yl)furo[3,2-c]pyridin-2-yl]imidazo[1,2-b]pyridazine]	16.9	20.8
CS(=O)(=O)CCCOc1ccc2ncc(-c3cc4c(N5CCC(CO)CC5)nccc4o3)n2n1 [III-57, [1-(2-{6-[3-(Methylsulfonyl)propoxy]imidazo[1,2-b]pyridazin-3-yl}furo[3,2-c]pyridin-4-yl)piperidin-4-yl]methanol]	3.6	1.5
C[C@@H]1COCCN1c1nccc2oc(-c3cnc4ccc(OCCCS(C)(=O)=O)nn34)cc12 [III-58, 3-{4-[(3R)-3-Methylmorpholin-4-yl]furo[3,2-c]pyridin-2-yl}-6-[3-(methyl-sulfonyl)propoxy]imidazo[1,2-b]pyridazine]	4.4	1
CN1CCC(N(C)c2nccc3oc(-c4cnc5ccc(OC[C@H]6CCC(=O)N6)nn45)cc23)CC1 [III-65, (5R)-5-{[(3-{4-[Methyl(1-methylpiperidin-4-yl)amino]furo[3,2-c]pyridin-2-yl}imidazo[1,2-b]pyridazin-6-yl)oxy]methyl}pyrrolidin-2-one]	19.9	11.6
CC(C)(C)[Si](C)(C)OC[C@H]1CCCN1c1nccc2oc(-c3cnc4ccc(OC[C@H]5CCC(=O)N5)nn34)cc12 [III-66, (5R)-5-{[(3-{4-[(2R)-2-({[tert-Butyl(dimethyl)silyl]oxy}methyl)pyrrolidin-1-yl]furo[3,2-c]pyridin-2-yl}imidazo[1,2-b]pyridazin-6-yl)oxy]methyl}pyrrolidin-2-one]	8.5	4.2
CCN(CCOC)c1nccc2oc(-c3cnc4ccc(OC[C@H]5CCC(=O)N5)nn34)cc12 [III-69, (5R)-5-{[(3-{4-[Ethyl(2-methoxyethyl)amino]furo[3,2-c]pyridin-2-yl}imidazo[1,2-b]pyridazin-6-yl)oxy]methyl}pyrrolidin-2-one]	0.1	0.4
CCN(CCOC(C)(C)C)c1nccc2oc(-c3cnc4ccc(OC[C@H]5CCC(=O)N5)nn34)cc12 [III-80, (5R)-5-{[(3-{4-[(2-tert-Butoxyethyl)(ethyl)amino]furo[3,2-c]pyridin-2-yl}imidazo[1,2-b]pyridazin-6-yl)oxy]methyl}pyrrolidin-2-one]	0.2	0.4
